The values below come from the METLIN SMRT retention time set (Domingo-Almenara et al. 2019).

The nature of this data set: gradient 5% acetonitrile 3 min, to 50% in 2 min, to 85% in 15 min, held 3 min, 100 µL/min. The conditions noted are these: column: Zorbax Extend-C18 2.1 x 50 mm; eluents: water / acetonitrile, 0.1% formic acid. An outline of the steps: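 Using water and acetonitrile that each contained 0.1% formic acid, mixtures of ~100 pure standards were separated at 100 μL/min on a Zorbax Extend-C18 column (2.1 × 50 mm, 1.8 μm). The HPLC fed a quadrupole time-of-flight mass spectrometer working in positive and negative ionization mode, with dead and dwell volumes of 40 μL and 900 μL. Data were acquired over 3 months. Retention time was read from computationally picked adduct peaks after manual inspection of each.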
For the compound `O=C(NCc1cccs1)C1CCN(C(=O)C2Sc3ccccc3NC2=O)CC1` (centres undefined), the RP-LC retention time was determined as 714 s.

For the compound `O=C(Cn1cnc2nc(N3CCC(C(=O)NC4CC4)CC3)sc2c1=O)Nc1ccccc1Cl`, the RP-LC retention time turned out to be 665 s.

With `Cc1nn(C2CCS(=O)(=O)C2)c(C)c1N1CCN(CC(=O)Nc2ccccc2F)CC1` (centres undefined), the RP-LC retention time came to 558 s.

As for `O=C(c1ccc2ccccc2n1)N1CC2CN(S(=O)(=O)c3ccccc3)CC(C1)O2`, the RP-LC retention time was 769 s.

In the case of `CCCNC(=O)C1CCN(c2ccc(SCC(=O)Nc3ccccc3OC)nn2)CC1`, the RP-LC retention time was determined as 611 s.

Regarding `CCCCN1CC(=O)N(c2cccc(Cl)c2)[C@@H]2CS(=O)(=O)C[C@@H]21`, the RP-LC retention time is 790 s.

Consider `O=C(N[C@H]1C[C@@H]2C[C@H]1CN2C(=O)c1cc2c(s1)CCCC2)c1cccnc1`, for which the RP-LC retention time came to 731 s.

`Cc1cc2c(cc1CNC(=O)Cn1c(C(F)(F)F)nc3cc4c(cc31)OCCO4)OCCCO2` had an RP-LC retention time of 851 s.

In turn, `O=C(c1cc2ccccc2[nH]1)N1CCN(c2cc(-c3ccc(Cl)cc3)[nH]n2)CC1` returned an RP-LC retention time of 923 s.

`CCC1CN2C=NC(N3CCN(S(=O)(=O)c4cc(Cl)ccc4OC)CC3)=CC2=N1` (centres undefined) returned an RP-LC retention time of 705 s.

With `O=c1n(CC2CC2)nc2n1CCC(NS(=O)(=O)Cc1ccccc1F)CC2` (centres undefined), the RP-LC retention time came out at 706 s.

The compound `COc1ccc2nc(C(=O)N3CCN(c4ccc(F)cc4)CC3)cn2n1` returned an RP-LC retention time of 731 s.

In turn, `OC1(c2ccccn2)CCOC2(CCN(Cc3cccc(F)c3F)CC2)C1` (centres undefined) showed an RP-LC retention time of 571 s.

Compound `Cc1cc(F)ccc1NC(=O)CN1C(=O)CCCc2cc(S(=O)(=O)N3CCCC3)ccc21` showed an RP-LC retention time of 817 s.

As to `CCCN1CCN(C(=O)CN2C(=O)C3CCCCN3c3ccc(C(=O)N(C)C)cc32)CC1` (centres undefined), the RP-LC retention time came out at 602 s.

Consider `CCc1ccc(CNC(=O)C2CCCN(C(=O)c3[nH]c(C)c(C(=O)OC(C)C)c3C)C2)cc1` (centres undefined), for which the RP-LC retention time came to 959 s.

With `Cc1ccc(-c2ccc(N3CCCC(C(=O)NCC4CCCO4)C3)nn2)cc1C` (centres undefined), the RP-LC retention time turned out to be 663 s.

As for `CC(C)n1cnc2cc(CNC(=O)C3CCCC3)ccc21`, the RP-LC retention time came to 595 s.

`CN(C)c1ccc(CNC(=O)CN2CCN(C(=O)Nc3ccc(Br)cc3)CC2=O)cc1` showed an RP-LC retention time of 611 s.

For `COCCn1c(SCc2nc(-c3ccc(Cl)cc3)no2)nc2cc3c(cc2c1=O)OCO3`, the RP-LC retention time was 1180 s.

The compound `CCn1cc(-c2nc(C)c(C(=O)NCc3ccccn3)s2)c2cccnc21` returned an RP-LC retention time of 946 s.

Turning to `Cc1nnc(-c2ccc3ccn(CC(=O)N4CCN(c5cccc(C)c5C)CC4)c3c2)o1`, the RP-LC retention time came to 997 s.

The compound `O=C1NCCCn2nc(C3CCN(C(=O)Nc4cccc(C(F)(F)F)c4)CC3)cc21` gave an RP-LC retention time of 721 s.

`O=C(CCn1c(=O)oc2ccccc21)Nc1ccc(S(=O)(=O)Nc2nccs2)cc1` returned an RP-LC retention time of 650 s.

For the compound `Cc1cccc(C)c1Nc1c(-c2ccc(Cl)cc2)nc2cnccn12`, the RP-LC retention time stood at 1030 s.

For `CCSc1ccccc1C(=O)Nc1nnc(-c2ccsc2)o1`, the RP-LC retention time was 751 s.

The compound `CC(C(=O)N1CCN(C(=O)c2ccco2)CC1)n1c(=O)c(C(F)(F)F)nc2ccccc21` (centres undefined) registered an RP-LC retention time of 834 s.

As to `O=C1C(c2cccs2)N(Cc2ccco2)C(=O)CN1c1ccccc1` (centres undefined), the RP-LC retention time was found to be 734 s.

Turning to `Cc1cc(C)cc(N2C(=O)CC(N3CCC(C(N)=O)CC3)C2=O)c1` (centres undefined), the RP-LC retention time was 562 s.

`O=[N+]([O-])c1ccc2c(c1)S(=O)c1ccccc1-2` (centres undefined) yielded an RP-LC retention time of 782 s.

`COc1ccc(C2=Nc3ccccc3N(CC(=O)Nc3ccc4c(c3)OCCO4)C(=O)C2)cc1` showed an RP-LC retention time of 913 s.

`O=C(c1ccco1)N1CCN(c2ccc(=O)n(-c3ccc(Cl)cc3)n2)CC1` returned an RP-LC retention time of 768 s.

Compound `CCNC(=O)N(CC(=O)N1CCc2sccc2C1COc1ccc(C)cc1)CC1CC1` (centres undefined) registered an RP-LC retention time of 935 s.

`Cc1cc(C)c2c(N3CCSCC3)nc(C(=O)N3CCN(CC(C)C)CC3)nc2n1` registered an RP-LC retention time of 580 s.

In turn, `Cc1c(S(=O)(=O)NCc2ccco2)c(C)n(C)c1-c1nnc(C2CCC2)o1` returned an RP-LC retention time of 853 s.

`CCc1ccc2oc(=O)cc(CN3CCN(c4ccccn4)CC3)c2c1`: the RP-LC retention time was found to be 669 s.

On to `COc1ccc(NC(=O)C2CCN(c3cncnc3N3CCCC3)CC2)cc1OC`, for which the RP-LC retention time amounted to 616 s.

On to `CCc1ccccc1NC(=O)c1c(O)c2cccnc2n(-c2cccc(F)c2)c1=O`, for which the RP-LC retention time worked out at 1320 s.

For `O=C(N[C@H]1C[C@@H]2C[C@H]1CN2S(=O)(=O)c1ccc2c(c1)CCC2)c1ccccc1`, the RP-LC retention time came out at 933 s.

`Cc1ccc2c(C(=O)NCC(C)C)cc(NC(=O)C3CCC3)cc2n1` showed an RP-LC retention time of 613 s.

Compound `CCC1Oc2ccc(S(=O)(=O)N3CCC(C(=O)N(C)Cc4ccco4)CC3)cc2NC1=O` (centres undefined) yielded an RP-LC retention time of 800 s.

For `CCCn1cnnc1C1CCCCN1C(=O)NCc1ccc(OC)cc1` (centres undefined), the RP-LC retention time came out at 659 s.

In the case of `CCCN1C(=O)COc2ccc(-c3csc(NC(=O)c4ccc(OC)cc4)n3)cc21`, the RP-LC retention time was 1040 s.

`Cc1cnc(C2CCOCC2)n1CC1CN(C(=O)C2CC=CC2)C1` yielded an RP-LC retention time of 568 s.

As for `COc1cccc(Nc2nc(C)c(C(=O)Nc3ccc(F)cc3F)s2)c1`, the RP-LC retention time was 955 s.

Compound `COc1cc(OC)c(NC(=O)N2CCc3nc[nH]c3C2)cc1Cl` returned an RP-LC retention time of 583 s.

In turn, `O=C1CC(c2noc(-c3ccc(Cl)cc3)n2)CN1c1ccc(F)cc1` (centres undefined) came in with an RP-LC retention time of 1030 s.

The compound `CCOC(=O)C1CCN(c2nc(-c3ccc(OC)cc3)nc3ccccc23)CC1` displayed an RP-LC retention time of 790 s.

Turning to `Cc1ccc2nc(NC3=NCN(CCO)CN3)nc(C)c2c1`, the RP-LC retention time amounted to 593 s.

`CC(C)c1nc(-n2cccc2)sc1C(=O)NCCCN1CCCCC1` registered an RP-LC retention time of 719 s.

Compound `CCOc1ccc(CC(=O)N2CCC3(CC2)N=C(c2ccccc2)NO3)cc1` gave an RP-LC retention time of 780 s.

In turn, `CCNc1nc(C)cc(N2CCN(C(=O)Nc3ccc(C)c(C)c3)CC2)n1` had an RP-LC retention time of 684 s.

On to `Cc1ccc2c(=O)c3c([nH]c2c1C)CCN(CC(=O)Nc1cccc(C#N)c1)C3`, for which the RP-LC retention time stood at 607 s.

As for `CCc1noc(-c2ccc(-n3ncc(C(=O)NC(C)C)c3C)nc2)n1`, the RP-LC retention time worked out at 837 s.

In turn, `CC1CCN(C(=O)C2c3ccccc3CCN2CC(=O)NCc2ccccc2)CC1` (centres undefined) displayed an RP-LC retention time of 900 s.

Take `O=C(Cc1csc(NC(=O)NC2CCCCC2)n1)NCc1ccco1`: the RP-LC retention time was 695 s.

Regarding `Cc1ccc(C)c(CNC(=O)c2ccc3c(c2)nc2n3CCN(C(C)C)C2=O)c1`, the RP-LC retention time is 769 s.

Compound `CNC(=O)c1noc([C@@H]2CC(F)(F)CN2CC2CC2)n1` showed an RP-LC retention time of 724 s.

In turn, `CSc1ccc(-c2noc(Cn3ncn4nc(-c5cccs5)cc4c3=O)n2)cc1` had an RP-LC retention time of 1130 s.

In the case of `O=C(c1ccoc1)N1CCC(Oc2nccnc2N2CCc3ccccc32)C1` (centres undefined), the RP-LC retention time was found to be 880 s.

On to `CCN(CC)S(=O)(=O)c1c[nH]c(=O)[nH]c1=O`, for which the RP-LC retention time was found to be 563 s.

With `CCc1ccc(N2C(=O)CN(Cc3ccc(OC)cc3)[C@H]3CS(=O)(=O)C[C@H]32)cc1`, the RP-LC retention time came to 866 s.

Turning to `COc1ccc(F)cc1S(=O)(=O)N1C[C@@H](F)C[C@H]1C(=O)N1CCc2ccccc2C1`, the RP-LC retention time was determined as 881 s.

Compound `COc1ccc(C(=O)Nc2ccc(N3CCN(C4CCCC4)C3=O)nc2)c(OC)c1` returned an RP-LC retention time of 829 s.

In turn, `O=c1[nH]c(SCc2nnc(Nc3ccccc3)s2)nc2sc3c(c12)CCC3` gave an RP-LC retention time of 801 s.

Consider `O=S(=O)(c1ccc(Br)cc1)N1CCNCC1`, for which the RP-LC retention time came to 549 s.

The compound `CC(C)n1nccc1-c1nnc(NC(=O)C(C)(C)Oc2ccc(Cl)cc2)o1` yielded an RP-LC retention time of 903 s.

`CN1C(=O)c2cccn2CC1C(=O)N1CCc2ccccc21` (centres undefined) had an RP-LC retention time of 703 s.

`CC(C)n1cnc(S(=O)(=O)N2CCC(C(=O)NCc3ccc(F)cc3)CC2)c1` registered an RP-LC retention time of 721 s.

For `Cc1ccc(C)c(CN2CCCN(CC(=O)NC(C)CCc3ccccc3)S2(=O)=O)c1` (centres undefined), the RP-LC retention time is 1140 s.

Turning to `Cc1occc1C(=O)N1CCCn2ccnc2C1c1cnn(C)c1` (centres undefined), the RP-LC retention time was 573 s.

In turn, `CCOc1ccccc1N1C(=O)CC(N2CCC(C(N)=O)CC2)C1=O` (centres undefined) came in with an RP-LC retention time of 589 s.

`Cc1oc2c(c1C(=O)Nc1cccc(C(F)(F)F)c1)C1=NCCN1C=N2` came in with an RP-LC retention time of 652 s.

As for `Cc1cccc(-c2noc(-c3nn(-c4ccc(Cl)cc4)ccc3=O)n2)c1`, the RP-LC retention time is 1000 s.

`COc1cccc(-c2ccc(=O)n(CCc3nc(-c4cccnc4)no3)n2)c1` returned an RP-LC retention time of 746 s.

`Cc1[nH]c(C(=O)Nc2ccc(F)c(Cl)c2)c(C)c1S(=O)(=O)N1CCCCC1` displayed an RP-LC retention time of 1020 s.

`Cc1cccc(NC(=O)C2CCN(S(C)(=O)=O)c3cc(Cl)ccc3O2)c1` (centres undefined): the RP-LC retention time was 1020 s.

`CCc1ccc(NC(=O)Cn2cnc3nc(N4CCC(C(=O)NC5CC5)CC4)sc3c2=O)cc1` showed an RP-LC retention time of 708 s.

In turn, `CCc1noc([C@@H]2CC(F)(F)CN2C(=O)c2coc(C)n2)n1` gave an RP-LC retention time of 732 s.
